From PubChem BioAssay (NCI)
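Growth conditions: 96-well plates. Treatment: test compound, 48 hours, 5 concentrations. Analysis: linear interpolation between bracketing concentrations; unreached endpoints set to highest concentration. Abbreviation: GI50, concentration required for 50% inhibition of growth. The concentration for full growth arrest is given as TGI.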

Key:
Assay in all cases: inhibition of tumour cell growth, NCI panel, 48 h
[1] = tested on: HS 578T breast
[2] = tested on: HOP-62 NSCLC
[3] = tested on: NCI-H226 lung
[4] = tested on: OVCAR-5 ovarian
[5] = tested on: SF-295 CNS
[6] = tested on: TK-10 renal
[7] = tested on: SF-539 CNS
[8] = tested on: MALME-3M melanoma
[9] = tested on: SK-OV-3 ovarian
[10] = tested on: OVCAR-3 ovarian
[11] = tested on: M14 melanoma
[12] = tested on: T-47D breast
[13] = tested on: SK-MEL-2 melanoma
[14] = tested on: OVCAR-8 ovarian
[15] = tested on: MDA-MB-231 breast
[16] = tested on: RPMI-8226 leukemia
[17] = tested on: SR leukemia
[18] = tested on: MOLT-4 leukemia
[19] = tested on: NCI-H460 lung
[20] = tested on: U251 CNS
[21] = tested on: LOX IMVI melanoma
[22] = tested on: RXF 393 renal
[23] = tested on: SK-MEL-28 melanoma
[24] = tested on: KM12 colon
[25] = tested on: COLO 205 colon
[26] = tested on: NCI/ADR-RES ovarian
[27] = tested on: HOP-92 NSCLC
[28] = tested on: HCT-15 colon
[29] = tested on: SN12C renal
[30] = tested on: UACC-257 melanoma
[31] = tested on: A498 renal
[32] = tested on: CCRF-CEM leukemia
[33] = tested on: UACC-62 melanoma
[34] = tested on: HCC-2998 colon
[35] = tested on: BT-549 breast
[36] = tested on: SF-268 CNS
[37] = tested on: DU-145 prostate
[38] = tested on: CAKI-1 renal
[39] = tested on: SNB-19 CNS
[40] = tested on: SK-MEL-5 melanoma
[41] = tested on: 786-0 renal
[42] = tested on: EKVX NSCLC
[43] = tested on: HCT-116 colon
[44] = tested on: PC-3 prostate
[45] = tested on: K-562 leukemia
[46] = tested on: NCI-H23 lung
[47] = tested on: A549 NSCLC
[48] = tested on: HL-60(TB) leukemia
[49] = tested on: HT29 colon
[50] = tested on: SNB-75 CNS
[51] = tested on: IGROV1 ovarian
[52] = tested on: OVCAR-4 ovarian
[53] = tested on: MDA-MB-435
[54] = tested on: MCF7 breast
[55] = tested on: ACHN renal
[56] = tested on: SW-620 colon
[57] = tested on: UO-31 renal

SMILES: CCOC(=O)c1c(NCC(=O)Nc2ccc(Br)cc2)sc2c1CCCC2
- GI50 [1]: 2890 nM
- TGI [1]: 32.3 µM
- GI50 [2]: 2320 nM
- TGI [2]: 5.71 µM
- GI50 [3]: 1720 nM
- TGI [3]: 6.48 µM
- GI50 [4]: 2020 nM
- TGI [4]: 3.77 µM
- GI50 [5]: 3.95 µM
- TGI [5]: 14.3 µM
- GI50 [6]: 1740 nM
- TGI [6]: 3.46 µM
- GI50 [7]: 1730 nM
- TGI [7]: 3.18 µM
- GI50 [8]: 1770 nM
- TGI [8]: 3.81 µM
- GI50 [9]: 3.49 µM
- TGI [9]: 10.9 µM
- GI50 [10]: 1610 nM
- TGI [10]: 3.12 µM
- GI50 [11]: 1900 nM
- TGI [11]: 4.9 µM
- GI50 [12]: 1760 nM
- TGI [12]: 4.61 µM
- GI50 [13]: 1840 nM
- TGI [13]: 5.49 µM
- GI50 [14]: 4 µM
- TGI [14]: > 100 µM
- GI50 [15]: 2080 nM
- TGI [15]: 5.21 µM
- GI50 [16]: 2090 nM
- TGI [16]: 5.32 µM
- GI50 [17]: 1220 nM
- TGI [17]: 5.33 µM
- GI50 [18]: 712 nM
- TGI [18]: 4.66 µM
- GI50 [19]: 1940 nM
- TGI [19]: 4.31 µM
- GI50 [20]: 1510 nM
- TGI [20]: 3.17 µM
- GI50 [21]: 829 nM
- TGI [21]: 2810 nM
- GI50 [22]: 1340 nM
- TGI [22]: 2760 nM
- GI50 [23]: 1710 nM
- TGI [23]: 3.49 µM
- GI50 [24]: 1970 nM
- TGI [24]: 4.1 µM
- GI50 [25]: 2010 nM
- TGI [25]: 4.52 µM
- GI50 [26]: 2600 nM
- TGI [26]: 8.51 µM
- GI50 [27]: 1420 nM
- TGI [27]: 3.84 µM
- GI50 [28]: 1380 nM
- TGI [28]: 3.47 µM
- GI50 [29]: 2510 nM
- TGI [29]: 7.16 µM
- GI50 [30]: 2800 nM
- TGI [30]: 8.2 µM
- GI50 [31]: 1850 nM
- TGI [31]: 5.67 µM
- GI50 [32]: 801 nM
- TGI [32]: 6.72 µM
- GI50 [33]: 1480 nM
- TGI [33]: 3.16 µM
- GI50 [34]: 1820 nM
- TGI [34]: 3.36 µM
- GI50 [35]: 1450 nM
- TGI [35]: 3.97 µM
- GI50 [36]: 2060 nM
- TGI [36]: 8.24 µM
- GI50 [37]: 1680 nM
- TGI [37]: 3.28 µM
- GI50 [38]: 2060 nM
- TGI [38]: 7.46 µM
- GI50 [39]: 2200 nM
- TGI [39]: 6.31 µM
- GI50 [40]: 1650 nM
- TGI [40]: 3.08 µM
- GI50 [41]: 2260 nM
- TGI [41]: 6.04 µM
- GI50 [42]: 1810 nM
- TGI [42]: 4.91 µM
- GI50 [43]: 1630 nM
- TGI [43]: 3.81 µM
- GI50 [44]: 2460 nM
- TGI [44]: 9.71 µM
- GI50 [45]: 1660 nM
- TGI [45]: 7.09 µM
- GI50 [46]: 1810 nM
- TGI [46]: 4.6 µM
- GI50 [47]: 2780 nM
- TGI [47]: 8.46 µM
- GI50 [48]: 1570 nM
- TGI [48]: 4.37 µM
- GI50 [49]: 1910 nM
- TGI [49]: 3.98 µM
- GI50 [50]: 2220 nM
- TGI [50]: 14.3 µM
- GI50 [51]: 2130 nM
- TGI [51]: 12.1 µM
- GI50 [52]: 1740 nM
- TGI [52]: 4.77 µM
- GI50 [53]: 1900 nM
- TGI [53]: 5.58 µM
- GI50 [54]: 1480 nM
- TGI [54]: 3.51 µM
- GI50 [55]: 1740 nM
- TGI [55]: 3.29 µM
- GI50 [56]: 2280 nM
- TGI [56]: 6.1 µM
- GI50 [57]: 1500 nM
- TGI [57]: 3.3 µM
